In the NIST ThermoML archive (doi:10.1016/j.fluid.2006.12.015):

Legend:
[1] = Liquid, Ebulliometric method (Recirculating still)
[2] = refractive index (Na D-line) (dimensionless); conditions: 298.15 K; 101.33 kPa; Liquid; Standard Abbe refractometry

CCOC(C)(C)C [2-ethoxy-2-methylpropane]
[1]
Conditions	vapor or sublimation pressure [kPa]
312.51 K	30.76
318.88 K	39.54
326.24 K	52.05
331.11 K	62.01
333.15 K	66.52
335.04 K	71.06
339.18 K	81.64
342.53 K	91.06
343.15 K	92.96
345.9 K	101.41

Conditions	refractive index
[2]	1.373

CCSCC [3-thiapentane]
[1]
Conditions	vapor or sublimation pressure [kPa]
333.15 K	34.97
343.15 K	50.14
353.15 K	70.15

Conditions	refractive index
[2]	1.44

C1CCCCC1 [cyclohexane]
[1]
Conditions	vapor or sublimation pressure [kPa]
318.47 K	30.51
326.06 K	40.65
331.63 K	49.56
337.52 K	60.6
342.21 K	70.8
343.15 K	72.66
346.25 K	80.64
350.08 K	90.89
353.15 K	99.41
353.32 K	100.38

Conditions	refractive index
[2]	1.4235

Cc1ccccc1 [toluene]
Conditions	refractive index
[2]	1.4939
